According to patent US20100061945A1, “Use Of Quinoa Extract As Cosmetic And Pharmaceutic Slimming Agent And/Or As An Agent Preventing The Formation Of New Fats In The Human Body” (Societe D'Exploitation Des Produits Pour Les Indus tries …, priority 2006, published 2010):

What was measured:
normal human adipocytes = test: Lipolytic activity in isolated normal human adipocytes by assaying the free fatty acids; format: cell-based; details: incubation concentration 0.0001 weight % DE, two hours at 37° C.
[1] = tested on: murine preadipocytes (3T3-L1 line); test: Differentiation of preadipocytes to adipocytes, G6PDH activity assay; format: cell-based; details: incubation concentration 0.0000001 weight % DE (1 ng/ml)
Protocol: 1—Principle of the Method • The method described consists in incubating the product in the presence of murine preadipocytes (3T3-L1 line) which, under the influence of an appropriate culture medium, differentiate into mature adipocytes capable of storing triglycerides. The differentiation is evaluated by an enzymatic assay of Glucose-6-phosphate dehydrogenase (G6PDH). This enzyme, which is located within the adipocytes, allows the conversion of Glucose-6-phosphate to Gluconate-6-phosphate in the presence of Nicotinamide Adenine Dinucleotide Phosphate (NAPD) and leads to the formation of Hydrogenated Nicotinamide Adenine Dinucleotide Phosphate (NAPDH) used for the neosynthesis of fatty acids. It is present in the mature adipocytes. The formation of NAPDH is monitored by absorption spectrophotometry at 340 nanometers.
2—Experimental Protocol • (i)—Cellular model: The test is carried out using murine preadipocytes (3T3-L1 cell line) cultured in a monolayer until confluence is obtained. […] The G6PDH activity of the cellular lyzates is measured by adding its substrate, D-glucose 6P (1 mmol) and its cofactor NADP (8 mmol). The kinetics of appearance of NAPDH is measured by spectrophotometry at 340 nm for 2 minutes. […]

| Molecule | Lipolytic activity (compared with the control = 100) (normal human adipocytes) | Free fatty acid concentration (normal human adipocytes; mean of five assays, control 16 ± 3) [µmol] | % inhibition (differentiation of the preadipocytes) [1] [%] | G6PDH ([1]; differentiated control 0.46 ± 0.03, undifferentiated control 0.03 ± 0.002) [U/ml] |
| --- | --- | --- | --- | --- |
| Cn1c(=O)c2c(ncn2C)n(C)c1=O [Caffeine, 1,3,7-trimethyl-xanthine] | 154 | 25 ± 4 | – | – |
| TNFα | – | – | 43 | 0.005 ± 0.01 |
